# From patent publication US20230278972A1, “SUBSTITUTED HALOALKYL SULFONANILIDE HERBICIDES” (FMC Corporation, priority 2020, published 2023)
# Assays:
# Assay type in all cases: in vivo
# [1] = test system: galium (catchweed bedstraw, Galium aparine); assay: Test A postemergence, galium; conditions: Postemergence, 0 to 100 scale (0 no effect, 100 complete control); for Galium plant response rating: visual injury vs untreated controls after approx. 10 days
# How it was run: (§1)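 Postemergence ratings come from foliar sprays onto one- to two-leaf plants of 2 to 10 cm grown in loam/sand; preemergence ratings come from a directed spray onto the soil of newly seeded pots. Formulation was a surfactant-containing non-phytotoxic solvent blend.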
# [2] = test system: Foxtail, Giant (giant foxtail, Setaria faberi); assay: Test A preemergence, Foxtail, Giant; conditions: Preemergence; for Plant response rating, Foxtail, Giant: 0 to 100 scale (0 no effect, 100 complete control); for Foxtail, Giant plant response rating: 125 g ai/ha, visual injury on 0 to 100 scale (0 no effect, 100 complete control), approximately 10 days
# How it was run: (§2)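 Seeds are sown in loam mixed with sand and sprayed on the soil surface right after planting for the preemergence test. Postemergence pots are sprayed once seedlings reach 2 to 10 cm at the one- to two-leaf stage. The same surfactant-containing, non-phytotoxic solvent formulation serves both.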
# [3] = test system: ragweed (common ragweed, Ambrosia artemisiifolia); assay: Test A postemergence, ragweed; conditions: Postemergence, 0 to 100 scale (0 no effect, 100 complete control); for Ragweed plant response rating: visual injury vs untreated controls after approx. 10 days
# How it was run: as §2
# [4] = test system: barnyardgrass (Echinochloa crus-galli); assay: Test A postemergence, barnyardgrass; conditions: Postemergence, 0 to 100 scale (0 no effect, 100 complete control); for Barnyardgrass plant response rating: visual injury vs untreated controls after approx. 10 days
# How it was run: as §1
# [5] = test system: Foxtail, Giant (giant foxtail, Setaria faberi); assay: Test A postemergence, Foxtail, Giant; conditions: Postemergence, 0 to 100 scale (0 no effect, 100 complete control); for Foxtail, Giant plant response rating: visual injury vs untreated controls after approx. 10 days
# How it was run: as §2
# [6] = test system: Ryegrass, Italian (Italian ryegrass, Lolium multiflorum); assay: Test A postemergence, Ryegrass, Italian; conditions: Postemergence, 0 to 100 scale (0 no effect, 100 complete control); for Ryegrass, Italian plant response rating: visual injury vs untreated controls after approx. 10 days
# How it was run: as §2
# [7] = test system: Ryegrass, Italian (Italian ryegrass, Lolium multiflorum); assay: Test A preemergence, Ryegrass, Italian; conditions: Preemergence; for Plant response rating, Ryegrass, Italian: 0 to 100 scale (0 no effect, 100 complete control); for Ryegrass, Italian plant response rating: 125 g ai/ha, visual injury on 0 to 100 scale (0 no effect, 100 complete control), approximately 10 days
# How it was run: as §2
# [8] = test system: kochia (Bassia scoparia); assay: Test A postemergence, kochia; conditions: Postemergence, 0 to 100 scale (0 no effect, 100 complete control); for Kochia plant response rating: visual injury vs untreated controls after approx. 10 days
# How it was run: as §2
# [9] = test system: pigweed (Amaranthus retroflexus); assay: Test A postemergence, pigweed; conditions: Postemergence, 0 to 100 scale (0 no effect, 100 complete control); for Pigweed plant response rating: visual injury vs untreated controls after approx. 10 days
# How it was run: as §2
# [10] = test system: wheat (Triticum aestivum); assay: Test A postemergence, wheat; conditions: Postemergence, 0 to 100 scale (0 no effect, 100 complete control); for Wheat plant response rating: visual injury vs untreated controls after approx. 10 days
# How it was run: as §1
# [11] = test system: ragweed (common ragweed, Ambrosia artemisiifolia); assay: Test A preemergence, ragweed; conditions: Preemergence; for Plant response rating, Ragweed: 0 to 100 scale (0 no effect, 100 complete control); for Ragweed plant response rating: 125 g ai/ha, visual injury on 0 to 100 scale (0 no effect, 100 complete control), approximately 10 days
# How it was run: as §2
# [12] = test system: barnyardgrass (Echinochloa crus-galli); assay: Test A preemergence, barnyardgrass; conditions: Preemergence; for Plant response rating, Barnyardgrass: 0 to 100 scale (0 no effect, 100 complete control); for Barnyardgrass plant response rating: 125 g ai/ha, visual injury on 0 to 100 scale (0 no effect, 100 complete control), approximately 10 days
# How it was run: as §2
# [13] = test system: pigweed (Amaranthus retroflexus); assay: Test A preemergence, pigweed; conditions: for Plant response rating, Pigweed: 0 to 100 scale (0 no effect, 100 complete control); for Pigweed plant response rating: 125 g ai/ha, visual injury on 0 to 100 scale (0 no effect, 100 complete control), approximately 10 days
# How it was run: as §1
# [14] = test system: corn (Zea mays); assay: Test A postemergence, corn; conditions: Postemergence, 0 to 100 scale (0 no effect, 100 complete control); for Corn plant response rating: visual injury vs untreated controls after approx. 10 days
# How it was run: as §2
# [15] = test system: blackgrass (Alopecurus myosuroides); assay: Test A postemergence, blackgrass; conditions: Postemergence, 0 to 100 scale (0 no effect, 100 complete control); for Blackgrass plant response rating: visual injury vs untreated controls after approx. 10 days
# How it was run: as §2
# [16] = test system: kochia (Bassia scoparia); assay: Test A preemergence, kochia; conditions: Preemergence; for Plant response rating, Kochia: 0 to 100 scale (0 no effect, 100 complete control); for Kochia plant response rating: 125 g ai/ha, visual injury on 0 to 100 scale (0 no effect, 100 complete control), approximately 10 days
# How it was run: as §2
# [17] = 125 g ai/ha, visual injury approx. 10 days
# [18] = 31 g ai/ha, visual injury, approx. 10 days
# [19] = 500 g ai/ha, visual injury, approx. 10 days
SMILES,"Plant response rating, Galium [1, 17]","Foxtail, Giant plant response rating [2]","Plant response rating, Ragweed [3, 17]","Plant response rating, Barnyardgrass [4, 17]","Plant response rating, Foxtail, Giant [5, 17]","Plant response rating, Ryegrass, Italian [6, 17]","Ryegrass, Italian plant response rating [7]","Plant response rating, Kochia [8, 17]","Plant response rating, Pigweed [9, 17]","Plant response rating, Wheat [10, 17]",Ragweed plant response rating [11],Barnyardgrass plant response rating [12],Pigweed plant response rating [13],"Plant response rating, Corn [14, 17]","Plant response rating, Blackgrass [15, 17]",Kochia plant response rating [16],"Plant response rating, Foxtail, Giant ([2]; 500 g ai/ha)","Plant response rating, Ryegrass, Italian ([7]; 500 g ai/ha)","Plant response rating, Ragweed ([11]; 500 g ai/ha)","Plant response rating, Barnyardgrass ([12]; 500 g ai/ha)",other results
Cc1cc(C(=O)N2CCOC(C)(C)C2)cc(NS(=O)(=O)C(F)(F)F)c1Cl [Compound 2],90,80,80,80,50,40,50,20,70,60,90,60,100,30,0,50,,,,,"Plant response rating, Galium ([1]; 31 g ai/ha): 90; Plant response rating, Foxtail, Giant [2, 18]: 80; Plant response rating, Ragweed ([3]; 31 g ai/ha): 30; Plant response rating, Barnyardgrass ([4]; 31 g ai/ha): 30; Plant response rating, Foxtail, Giant ([5]; 31 g ai/ha): 20; Plant response rating, Ryegrass, Italian ([6]; 31 g ai/ha): 0; Plant response rating, Ryegrass, Italian [7, 18]: 30; Plant response rating, Kochia ([8]; 31 g ai/ha): 10; Plant response rating, Pigweed ([9]; 31 g ai/ha): 60; Plant response rating, Wheat ([10]; 31 g ai/ha): 40; Plant response rating, Ragweed [11, 18]: 30; Plant response rating, Barnyardgrass [12, 18]: 0; Plant response rating, Pigweed [13, 18]: 100; Plant response rating, Corn ([14]; 31 g ai/ha): 20; Plant response rating, Blackgrass ([15]; 31 g ai/ha): 0; Plant response rating, Kochia [16, 18]: 20"
Cc1cc(Cl)c(NS(=O)(=O)C(F)(F)F)cc1C(=O)N1CC(C)OC(C)C1 (centres unmarked) [Compound 20],90,80,80,60,60,70,50,10,30,60,90,100,20,10,30,40,100,100,100,100,"Plant response rating, Galium [1, 19]: 90; Plant response rating, Ragweed [3, 19]: 80; Plant response rating, Barnyardgrass [4, 19]: 80; Plant response rating, Foxtail, Giant [5, 19]: 90; Plant response rating, Ryegrass, Italian [6, 19]: 70; Plant response rating, Kochia [8, 19]: 30; Plant response rating, Pigweed [9, 19]: 80; Plant response rating, Wheat [10, 19]: 70; Plant response rating, Pigweed ([13]; 500 g ai/ha): 80; Plant response rating, Corn [14, 19]: 70; Plant response rating, Blackgrass [15, 19]: 30; Plant response rating, Kochia ([16]; 500 g ai/ha): 90"
COc1cc(C)c(NS(=O)(=O)C(F)(F)F)cc1-c1ccnn(C)c1=O [Compound 81],80,100,20,70,90,0,30,40,20,40,30,90,30,0,0,0,100,50,40,90,"Galium plant response rating ([1]; 500 g ai/ha): 90; Ragweed plant response rating ([3]; 500 g ai/ha): 60; Barnyardgrass plant response rating ([4]; 500 g ai/ha): 80; Foxtail, Giant plant response rating ([5]; 500 g ai/ha): 90; Ryegrass, Italian plant response rating ([6]; 500 g ai/ha): 60; Kochia plant response rating ([8]; 500 g ai/ha): 50; Pigweed plant response rating ([9]; 500 g ai/ha): 60; Wheat plant response rating ([10]; 500 g ai/ha): 60; Plant response rating, Pigweed ([13]; 500 g ai/ha): 100; Corn plant response rating ([14]; 500 g ai/ha): 20; Blackgrass plant response rating ([15]; 500 g ai/ha): 70; Plant response rating, Kochia ([16]; 500 g ai/ha): 80"
Cc1cc(-c2cc(NS(=O)(=O)C(F)(F)F)c(C)cc2C)c(=O)n(C)n1 [Compound 62],70,100,0,0,0,0,40,20,20,0,20,100,50,0,0,70,100,100,80,100,"Galium plant response rating ([1]; 500 g ai/ha): 80; Ragweed plant response rating ([3]; 500 g ai/ha): 20; Barnyardgrass plant response rating ([4]; 500 g ai/ha): 70; Foxtail, Giant plant response rating ([5]; 500 g ai/ha): 80; Ryegrass, Italian plant response rating ([6]; 500 g ai/ha): 20; Kochia plant response rating ([8]; 500 g ai/ha): 40; Pigweed plant response rating ([9]; 500 g ai/ha): 40; Wheat plant response rating ([10]; 500 g ai/ha): 60; Plant response rating, Pigweed ([13]; 500 g ai/ha): 90; Corn plant response rating ([14]; 500 g ai/ha): 0; Blackgrass plant response rating ([15]; 500 g ai/ha): 50; Plant response rating, Kochia ([16]; 500 g ai/ha): 90"
